From ChEMBL document CHEMBL1144378, “Analogues of the neuroprotective tripeptide Gly-Pro-Glu (GPE): synthesis and structure-activity relationships” (Bioorg Med Chem Lett, 2005) come the findings set out here.

Active and inactive are the calls of the source. The rule behind the calls is not given here.

The term Ki denotes a measure of affinity in units of concentration, obtained from inhibition or displacement. Low values mean tighter binding, high ones weaker binding.

In the first test the target is Glutamate NMDA receptor. The test can be described thus: Displacement of L-[3H]glutamate from N-methyl-D-aspartate glutamate receptor in rat brain synaptic membranes. The format is cell membranes, Membrane.
Details: not given
For `N[C@H](CCCP(=O)(O)O)C(=O)O`, the inhibition constant Ki worked out at 3.83 µM.

The next test has as its target Glutamate NMDA receptor (Rattus norvegicus) (UniProt P35439+Q00959+Q00960+Q00961+Q62645+Q8VHN2+Q9R1M7). The test can be described thus: Displacement of L-[3H]glutamate from N-methyl-D-aspartate glutamate receptor in rat brain synaptic membranes; No displacement up to 100 uM. The class given is cell membranes. The note with it: Membrane.
Regarding `NCC(=O)N1CCC[C@H]1C(=O)N[C@H](CCC(=O)O)C(=O)O`, the result was inactive.

In the case of `NCC(=O)N1CCC[C@H]1C(=O)N[C@@H](CC(=O)O)C(=O)O`, the result was inactive.

For the molecule `NCC(=O)N1CSC[C@@H]1C(=O)N[C@@H](CCC(=O)O)C(=O)O`, the outcome was inactive.

For the molecule `NCC(=O)N1CCC[C@H]1C(=O)N[C@H](CCCC(=O)O)C(=O)O`, the result was inactive.

For `NCC(=O)N1CCC[C@@H]1C(=O)N[C@@H](CCC(=O)O)C(=O)O`, the result was inactive.

Regarding `NCC(=O)N1CCC[C@H]1C(=O)N[C@@H](CCCC(=O)O)C(=O)O`, the outcome was inactive.

As to `NCC(=O)N1CCC[C@@H]1C(=O)N[C@H](CCC(=O)O)C(=O)O`, the result was inactive.

In the case of `CC1(C)SC[C@H](C(=O)N[C@@H](CCC(=O)O)C(=O)O)N1C(=O)CN`, the outcome was inactive.

`NCC(=O)N1CCC[C@H]1C(=O)N[C@H](CC(=O)O)C(=O)O`: the outcome was inactive.
